Paper PMC12645583 (British journal of haematology, 2025)

Key:
IRAK1 = IRAK1 (Homo sapiens, UniProt P51617); test: KINOMEscan kinase profiling, % inhibition at […]; assay type: binding
HCK = HCK (Homo sapiens, UniProt P08631); test: SelectScreen Z-Lyte enzymatic kinase assay at ATP Km app; assay type: biochemical
BTK = BTK (Homo sapiens, UniProt Q06187); test: as above; assay type: biochemical
Sequence of BTK (Q06187 2-659): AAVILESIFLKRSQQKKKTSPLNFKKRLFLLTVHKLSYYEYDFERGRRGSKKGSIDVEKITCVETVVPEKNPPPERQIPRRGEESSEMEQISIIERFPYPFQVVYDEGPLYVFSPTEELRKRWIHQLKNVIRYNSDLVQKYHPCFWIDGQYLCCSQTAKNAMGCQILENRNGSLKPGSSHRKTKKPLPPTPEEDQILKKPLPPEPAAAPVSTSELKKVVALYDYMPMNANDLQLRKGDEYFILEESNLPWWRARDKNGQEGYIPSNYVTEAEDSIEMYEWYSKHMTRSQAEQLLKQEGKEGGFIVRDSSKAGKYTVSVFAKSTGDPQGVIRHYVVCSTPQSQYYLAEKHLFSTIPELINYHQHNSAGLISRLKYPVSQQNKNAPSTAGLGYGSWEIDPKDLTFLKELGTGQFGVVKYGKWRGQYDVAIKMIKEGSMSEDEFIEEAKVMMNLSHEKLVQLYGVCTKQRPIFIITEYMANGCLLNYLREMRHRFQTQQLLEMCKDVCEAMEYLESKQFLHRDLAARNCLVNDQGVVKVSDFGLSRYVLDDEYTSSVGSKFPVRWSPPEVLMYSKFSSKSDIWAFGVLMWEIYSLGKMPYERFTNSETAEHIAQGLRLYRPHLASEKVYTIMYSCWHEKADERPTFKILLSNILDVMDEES

Sequence of HCK (P08631 2-526): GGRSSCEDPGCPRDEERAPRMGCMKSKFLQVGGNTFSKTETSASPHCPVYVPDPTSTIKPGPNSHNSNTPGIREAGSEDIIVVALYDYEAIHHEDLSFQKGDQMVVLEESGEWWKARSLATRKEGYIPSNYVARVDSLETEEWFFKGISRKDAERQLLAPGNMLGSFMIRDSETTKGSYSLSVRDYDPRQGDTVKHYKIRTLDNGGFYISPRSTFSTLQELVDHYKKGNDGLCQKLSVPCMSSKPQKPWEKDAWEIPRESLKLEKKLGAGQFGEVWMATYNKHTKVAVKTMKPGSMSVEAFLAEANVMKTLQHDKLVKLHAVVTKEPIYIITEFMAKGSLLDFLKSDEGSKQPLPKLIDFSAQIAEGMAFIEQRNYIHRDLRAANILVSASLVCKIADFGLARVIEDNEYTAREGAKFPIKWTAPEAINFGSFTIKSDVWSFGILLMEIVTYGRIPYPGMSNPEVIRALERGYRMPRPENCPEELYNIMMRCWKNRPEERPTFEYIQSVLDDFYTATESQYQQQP
Sequence of IRAK1 (P51617 whole entry): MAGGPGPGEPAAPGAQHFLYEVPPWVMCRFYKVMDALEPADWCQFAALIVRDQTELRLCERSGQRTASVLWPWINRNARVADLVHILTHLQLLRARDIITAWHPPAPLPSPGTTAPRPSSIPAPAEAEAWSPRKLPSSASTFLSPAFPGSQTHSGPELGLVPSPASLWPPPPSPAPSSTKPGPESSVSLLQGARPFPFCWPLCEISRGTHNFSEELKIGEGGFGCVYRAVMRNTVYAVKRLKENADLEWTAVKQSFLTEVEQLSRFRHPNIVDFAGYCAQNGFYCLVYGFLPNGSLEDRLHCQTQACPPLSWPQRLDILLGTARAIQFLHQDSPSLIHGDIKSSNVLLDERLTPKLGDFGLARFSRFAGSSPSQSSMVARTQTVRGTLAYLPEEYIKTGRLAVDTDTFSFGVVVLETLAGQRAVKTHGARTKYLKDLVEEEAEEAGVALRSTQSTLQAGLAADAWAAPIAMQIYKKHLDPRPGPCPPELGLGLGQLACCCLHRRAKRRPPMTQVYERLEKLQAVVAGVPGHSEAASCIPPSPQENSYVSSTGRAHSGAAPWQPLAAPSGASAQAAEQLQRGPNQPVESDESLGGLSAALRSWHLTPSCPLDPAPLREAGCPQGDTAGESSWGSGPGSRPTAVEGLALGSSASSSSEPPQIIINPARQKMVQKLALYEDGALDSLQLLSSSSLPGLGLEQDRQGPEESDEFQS

**Q.** How did the “%” value (IRAK1) turn out when C1=C/COCc2cc(ccc2OCCN2CCCC2)Nc2nccc(n2)-c2cccc(c2)COC/1 [pacritinib] was run?
**A.** The value was 99.5%.

**Q.** What about the IC50 (HCK) of the same molecule?
**A.** Its IC50 is 528 nM.

**Q.** And the IC50 (BTK)?
**A.** The IC50 was 367 nM.
